Assay results from patent publication US20240408169A1 (priority 2023, published 2024).
*1 amine or outer side, *2 acyl side, *3 side chain or, on linkers, in order; H or OH if unused. Where a SMILES comes first, the peptide text is derived from it. Bridges are numbered along the chain shown (N, C = ends). [ ]: non-standard residue; d: D form. The star is where a group is joined. X124 = CC(C)C(=O)N1[C@@H]2CC[C@H]1C=C(c1ccc(F)cc1C[C@@H](C(=O)[*:2])N(C)[*:1])C2; X165 = CN([C@@H](Cc1cc(Cl)ccc1-c1ccc(N2CCOCC2)c(Cl)c1)C(=O)[*:2])[*:1]; X178 = CN([C@@H](Cc1cc(F)ccc1-c1cnn(C2CCOC2)c1)C(=O)[*:2])[*:1]; X26 = CN([C@@H](Cc1cc(F)ccc1-c1cnn(C2CC2)c1)C(=O)[*:2])[*:1]; NMehhhLys(Me) = CN([C@@H](CCCCCCCN(C)[*:3])C(=O)[*:2])[*:1]; NMe(hhhLys) = CN([C@@H](CCCCCCCN[*:3])C(=O)[*:2])[*:1]; cBuCO(3,3-F2-1-CF3) = O=C(C1(C(F)(F)F)CC(F)(F)C1)*; Pro(trans-4-F) = O=C(O)[C@@H]1C[C@@H](F)CN1; X27 = O=C([C@]1(C(F)(F)F)CCCCO1)*; Gly(cPr) = N[C@H](C(=O)O)C1CC1

Key:
[1] = molecular target: T1, CyclinB1/CDK1 (Homo sapiens, UniProt P14635); assay: Fluorescence Polarization (FP) competitive binding assay, Cyclin B1/Cdk1; settings: 10 nM Cyclin B1/Cdk1, 2 nM FAM probe; average of 2-3 independent experiments; read-out: Cyclin B FP IC50;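 note: fluorescence polarization read after equilibration at room temperature, with IC50 taken from serially diluted dose-response curves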
T1 construct: purchased Eurofins, discovery 14-450

[2] = molecular target: T2, CyclinE1/CDK2 (Homo sapiens, UniProt P24864); assay: Fluorescence Polarization (FP) competitive binding assay, Cyclin E1/Cdk2; settings: 10 nM Cyclin E1/Cdk2, 2 nM FAM probe; average of 2-3 independent experiments; read-out: Cyclin E FP IC50;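 note: readings taken after two-hour equilibration at room temperature in HEPES buffer with NaCl, DTT, NP-40 and BSA, IC50 fitted from eight-concentration serial dilution series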
T2 construct: purchased Eurofins, discovery 14-475

[3] = system: NCI-H1048 cells; assay: MTT proliferation assay, NCI-H1048; format: cell-based; settings: 5 days compound exposure, 1:3 serial dilution starting at 10 μM;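 note: Dose-response in 96-well plates over 8 or 10 concentration points, with exposure spanning 3-4 cell doublings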
[4] = system: OVCAR3 cells; assay: MTT proliferation assay, OVCAR3; format: cell-based; settings: 5 days compound exposure, 1:3 serial dilution starting at 10 μM;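 note: compound given as an 8- or 10-point series, one day after plating, with exposure covering roughly 3-4 cell doublings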
[5] = molecular target: T3, CyclinA2/CDK2 (Homo sapiens, UniProt P20248); assay: Fluorescence Polarization (FP) competitive binding assay, Cyclin A2/Cdk2; settings: 8 nM Cyclin A2/Cdk2, 2 nM FAM probe; average of 2-3 independent experiments; read-out: Cyclin A FP IC50;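 note: plates equilibrated two hours at room temperature before polarization reading, IC50 fitted from eight-concentration compound titration curves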
T3 construct: purchased CRELUX Protein Services

Row | SMILES | IC50 [1] [nM] | IC50 [2] [nM] | GI50 [3] [nM] | GI50 [4] [nM] | IC50 [5] [nM]
1 | CC(C)C[C@@H]1NC(=O)[C@@H](N(C)C(=O)[C@@H](NC(=O)[C@@H]2C[C@@H](F)CN2C(=O)[C@]2(C(F)(F)F)CCCCO2)C2CC2)CCCCCCCN(C)C(=O)[C@H](Cc2cc(F)ccc2-c2cnn(C3CC3)c2)N(C)C1=O [Example 146] (X27-[Pro(trans-4-F)][Gly(cPr)][NMehhhLys(Me)]L[X26]; lactam 3-C) | 20 | 100 | 20 | 20 | 30
2 | CC(C)C[C@@H]1NC(=O)[C@@H](N(C)C(=O)[C@@H](NC(=O)[C@@H]2C[C@@H](F)CN2C(=O)C2(C(F)(F)F)CC(F)(F)C2)C2CC2)CCCCCCCN(C)C(=O)[C@H](Cc2cc(Cl)ccc2-c2ccc(N3CCOCC3)c(Cl)c2)N(C)C1=O [Example 345] ({cBuCO(3,3-F2-1-CF3)}-[Pro(trans-4-F)][Gly(cPr)][NMehhhLys(Me)]L[X165]; lactam 3-C) | 20 | 3050 | 20 | 40 | 30
3 | CC(C)C[C@@H]1NC(=O)[C@@H](N(C)C(=O)[C@@H](NC(=O)[C@@H]2C[C@@H](F)CN2C(=O)C2(C(F)(F)F)CC(F)(F)C2)C2CC2)CCCCCCCN(C)C(=O)[C@H](Cc2cc(F)ccc2-c2cnn(C3CCOC3)c2)N(C)C1=O (stereo partly drawn) [Example 94] ({cBuCO(3,3-F2-1-CF3)}-[Pro(trans-4-F)][Gly(cPr)][NMehhhLys(Me)]L[X178]; lactam 3-C) | 20 | 180 | 10 | 10 | 20
4 | CC[C@H](NC(=O)[C@@H]1C[C@@H](F)CN1C(=O)C1(C(F)(F)F)CC1)C(=O)N[C@H]1CC=CCCCCN(C)C(=O)[C@H](Cc2cc(Cl)ccc2Cl)N(C)C(=O)[C@H](CC(C)C)NC1=O [Example 13] | 20 | 100 | 70 | 240 | 100
5 | CC(C)C[C@@H]1NC(=O)[C@@H](NC(=O)[C@@H](NC(=O)[C@@H]2C[C@@H](F)CN2C(=O)C2(C(F)(F)F)CC(F)(F)C2)C2CC2)CC=CCCCCN(C)C(=O)[C@H](Cc2cc(Cl)ccc2Cl)N(C)C1=O [Example 12] | 20 | 100 | 30 | 40 | 60
6 | CC(C)C[C@@H]1NC(=O)[C@@H](N(C)C(=O)[C@@H](NC(=O)[C@@H]2C[C@@H](F)CN2C(=O)C2(C(F)(F)F)CCC2)C2CC2)CC=CCCCCN(C)C(=O)[C@H](Cc2cc(F)ccc2-c2cncnc2)N(C)C1=O [Example 41] | 20 | 810 | 100 | 130 | 160
7 | CC(C)C[C@@H]1NC(=O)[C@@H](N(C)C(=O)[C@@H](NC(=O)[C@@H]2C[C@@H](F)CN2C(=O)C2(C(F)(F)F)CC(F)(F)C2)C2CC2)CC=CCCCCNC(=O)[C@H](Cc2cc(F)ccc2-c2cnn(C)c2)N(C)C1=O [Example 195] | 20 | 180 | 10 | 10 | 40
8 | CC(=O)N1C2CCC1CC(c1ccc(F)cc1C[C@H]1C(=O)N(C)CCCCCCC[C@H](N(C)C(=O)[C@@H](NC(=O)[C@@H]3C[C@@H](F)CN3C(=O)C3(C(F)(F)F)CC(F)(F)C3)C3CC3)C(=O)N[C@@H](CC(C)C)C(=O)N1C)C2 (single isomer, unassigned) [Example 59-P1] | 20 | 850 | 20 | 20 | 120
9 | CC(=O)N1C2CCC1CC(c1ccc(F)cc1C[C@H]1C(=O)N(C)CCCCCCC[C@H](N(C)C(=O)[C@@H](NC(=O)[C@@H]3C[C@@H](F)CN3C(=O)C3(C(F)(F)F)CC(F)(F)C3)C3CC3)C(=O)N[C@@H](CC(C)C)C(=O)N1C)C2 (single isomer, unassigned) [Example 59-P2] | 20 | 870 | 60 | 50 | 180
10 | CC(C)C[C@@H]1NC(=O)[C@@H](N(C)C(=O)[C@@H](NC(=O)[C@@H]2C[C@@H](F)CN2C(=O)C2(C(F)(F)F)CC(F)(F)C2)C2CC2)CCCCCCCNC(=O)[C@H](Cc2cc(F)ccc2C2=C[C@@H]3CC[C@H](C2)N3C(=O)C(C)C)N(C)C1=O [Example 315] ({cBuCO(3,3-F2-1-CF3)}-[Pro(trans-4-F)][Gly(cPr)][NMe(hhhLys)]L[X124]; lactam 3-C) | 20 | 420 | 20 | 20 | 30
